Patent US8945825B2, “Homogeneous activity test for determining enzymatic reactions” (Siemens Healthcare Diagnostics Products GmbH, priority 2010, dated 2015)

Legend:
tc-FSAP = target: T1, tc-FSAP (Homo sapiens, UniProt Q14520); test: tc-FSAP inhibition assay (LOCI signal, peptide substrate IV); format: biochemical; settings: for signal: measured value after 15 minutes
T1 construct: directed against the light chain of FSAP; Two-chain FSAP (tc-FSAP) was prepared, as described by Kannemeier et al; made in house
Method: The kinetics of enzyme-inhibitor interaction was investigated by measuring enzyme activity as a function of the amount of inhibitor. In the tc-FSAP inhibition assays, constant amounts of enzyme (tc-FSAP, μg/mL) were preincubated with variable inhibitor concentrations (aprotinin from bovine lung, Fluka), to enable formation of the enzyme-inhibitor complex. Another assay was carried out without preincubation. The remaining protease activity was determined after adding the peptide substrate, as described in example 1.
120 μL test buffer pH 6.3, 10 μL anti-FSAP Chemibeads (200 μg/mL in test buffer), 10 μL purified tc-FSAP (10 μg/mL) and 10 μL test buffer with 0, 4.7 and 47.2 U/mL aprotinin were mixed in DIMENSION VISTA® LOCI® reaction cuvettes. Addition of 10 μL of biotinylated peptide substrate IV in test buffer and 10 μL Sensibeads (400 μg/mL in test buffer) took place without preincubation or after 10 minutes of preincubation at 37° C. The resultant LOCI® signal was measured kinetically, over a period of 15 minutes at 37° C., in a commercially available DIMENSION VISTA® LOCI® measuring unit (Siemens Healthcare Diagnostics Products GmbH) with 200 ms illumination at 680 nm and 1000 ms measuring time at 612 nm.
Another inhibitor used was a monoclonal antibody that inhibits FSAP activity (Siemens Healthcare Diagnostics Products GmbH, MAk No. 1102/570), which is directed against the light chain of FSAP and is formed by the hybridoma cell line DSM ACC2533 (see EP-A2-1334983), similarly to the assay with aprotinin.

FSAP in plasma = target: T2, FSAP in plasma (Homo sapiens, UniProt Q14520); test: Activation of FSAP in citrate plasma with dextran sulfate as cofactor, LOCI signal; format: biochemical; settings: Test buffer with DXS 20 μg/mL
T2 construct: from tissue; host or cells: citrate plasma
Method: Activation in the presence of dextran sulfate leads to a different signal height and signal dynamics versus the same sample, with the same FSAP concentration, but without activation by dextran sulfate (Table 4 and FIG. 2). The signal height produced by activation of the FSAP roughly corresponds to the signal of a purified tc-FSAP of equal concentration of 12 μg/mL with an enzyme activity of 1 PEU/mL (not shown).

T2 sequence (Q14520 24-313): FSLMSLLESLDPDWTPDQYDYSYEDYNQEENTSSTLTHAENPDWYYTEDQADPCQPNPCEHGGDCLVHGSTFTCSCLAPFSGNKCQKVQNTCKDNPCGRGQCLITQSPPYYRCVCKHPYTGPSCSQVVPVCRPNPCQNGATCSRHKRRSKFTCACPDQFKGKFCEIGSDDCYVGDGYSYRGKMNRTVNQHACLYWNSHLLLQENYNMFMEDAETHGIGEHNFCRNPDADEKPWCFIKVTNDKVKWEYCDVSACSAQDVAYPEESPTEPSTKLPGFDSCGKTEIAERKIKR
T2 sequence (Q14520 314-560): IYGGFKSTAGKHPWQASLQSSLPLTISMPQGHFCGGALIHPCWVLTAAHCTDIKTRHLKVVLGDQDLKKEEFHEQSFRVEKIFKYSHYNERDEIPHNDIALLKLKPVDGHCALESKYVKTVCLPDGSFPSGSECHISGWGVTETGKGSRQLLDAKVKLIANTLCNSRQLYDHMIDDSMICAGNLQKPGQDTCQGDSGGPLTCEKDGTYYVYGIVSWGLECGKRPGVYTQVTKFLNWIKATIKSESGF
T1 sequence (Q14520 314-560 limits assumed): as the sequence (Q14520 314-560) above
T1 sequence (Q14520 24-313 partner limits assumed): as the sequence (Q14520 24-313) above

Row | signal (tc-FSAP; Aprotinin 4.7 U/mL, with 10 min preincubation) [kcounts] | signal (tc-FSAP; Aprotinin 4.7 U/mL, without preincubation) [kcounts] | signal (tc-FSAP; Aprotinin 47.3 U/mL, with 10 min preincubation) [kcounts] | signal (tc-FSAP; Aprotinin 47.3 U/mL, without preincubation) [kcounts] | Effect on LOCI signal of tc-FSAP (in words) (tc-FSAP; mainly after preincubation with tc-FSAP) | signal (FSAP in plasma; MW ≧ 500 kDa, peptide 10 μg/mL, incubation time 5 at +37° C.) [kcounts] | signal (FSAP in plasma; MW ≧ 500 kDa, peptide 10 μg/mL, incubation time 10 at +37° C.) [kcounts] | signal (FSAP in plasma; MW ≧ 500 kDa, peptide 10 μg/mL, incubation time 15 at +37° C.) [kcounts] | signal (FSAP in plasma; peptide 0 μg/mL, incubation time 5 at +37° C.) [kcounts] | signal (FSAP in plasma; peptide 0 μg/mL, incubation time 10 at +37° C.) [kcounts] | signal (FSAP in plasma; peptide 0 μg/mL, incubation time 15 at +37° C.) [kcounts] | Substance
1 | 15.03 | 71.18 | 11.77 | 67.8 | strong signal-reducing effect | – | – | – | – | – | – | aprotinin
2 | – | – | – | – | – | 50.303 | 106.500 | 118.096 | 1.166 | 1.220 | 1.204 | dextran sulfate sodium salt [DXS]
